Among the data in ChEMBL document CHEMBL3045551, “Synthesis and Acaricidal Activity of N-(1,3,4-Thiadiazol-2-yl)cyclopropanecarboxamides” (2003) are mortality values, retold here.

The structures appear in SMILES notation.

Format in all cases: functional
For test [1], the system named is Tetranychus urticae. As to the kind of experiment: Acaricidal activity against Tetranychus urticae (two-spotted spider mite) assessed as mite mortality at 200 ppm relative to untreated control.
The subject of test [2] is Tetranychus urticae. As to the kind of experiment: Acaricidal activity against Tetranychus urticae (two-spotted spider mite) assessed as mite mortality at 12.5 ppm relative to untreated control.
Test [3] has as its system Tetranychus urticae. As to the kind of experiment: Acaricidal activity against Tetranychus urticae (two-spotted spider mite) assessed as mite mortality at 50 ppm relative to untreated control.
Test [4] deals with Tetranychus urticae. As to the kind of experiment: Acaricidal activity against Tetranychus urticae (two-spotted spider mite) assessed as mite mortality at 500 ppm relative to untreated control.

Turning to `CC1(C(=O)Nc2nnc(C(F)(F)C(F)(F)C(F)(F)F)s2)CC1(Cl)Cl` (stereo unspecified), the mortality at 200 ppm in test [1] worked out at 100%. The mortality at 12.5 ppm in test [2] turned out to be 80%. Besides, the mortality at 50 ppm in test [3] turned out to be 100%. Further, the mortality at 500 ppm in test [4] was found to be 100%.

As to `O=C(Nc1nnc(C(F)(F)F)s1)C1CC1(Cl)Cl` (stereo unspecified), the mortality at 500 ppm in test [4] was 0%.

As to `CC(C)C1(C(=O)Nc2nnc(C(F)(F)F)s2)CC1(Cl)Cl` (stereo unspecified), the mortality at 200 ppm in test [1] worked out at 80%. Besides, the mortality at 12.5 ppm in test [2] worked out at 30%. Moreover, in test [3], the mortality at 50 ppm stood at 30%. The mortality at 500 ppm in test [4] came to 80%.

For `CC1(C(=O)Nc2nnc(C(F)(F)F)s2)CC1(Br)Br` (stereo unspecified), in test [1], the mortality at 200 ppm came to 100%. Besides, the mortality at 12.5 ppm in test [2] was 0%. The mortality at 50 ppm in test [3] was 30%. The mortality at 500 ppm in test [4] came out at 100%.

With `Cc1nnc(NC(=O)C2(C)CC2(Cl)Cl)s1` (stereo unspecified), in test [4], the mortality at 500 ppm was determined as 0%.

Take `CC1(C(=O)Nc2nnc(C(F)(F)F)s2)CC1(Cl)Cl` (stereo unspecified): the mortality at 200 ppm in test [1] worked out at 100%. The mortality at 12.5 ppm in test [2] was determined as 30%. Besides, the mortality at 50 ppm in test [3] amounted to 100%. The mortality at 500 ppm in test [4] was found to be 100%.

Regarding `CC1(C(=O)Nc2nnc(C(F)(F)C(F)(F)F)s2)CC1(Cl)Cl` (stereo unspecified), in test [1], the mortality at 200 ppm came to 100%. Moreover, in test [2], the mortality at 12.5 ppm amounted to 30%. In test [3], the mortality at 50 ppm was 100%. In addition, the mortality at 500 ppm in test [4] was found to be 100%.

Consider `CC1(C(=O)Nc2nncs2)CC1(Cl)Cl` (stereo unspecified), for which the mortality at 500 ppm in test [4] is 0%.

In the case of `CC1(C(=O)Nc2nnc(C(F)(F)C(F)(F)C(F)(F)C(F)(F)F)s2)CC1(Cl)Cl` (stereo unspecified), the mortality at 500 ppm in test [4] amounted to 0%.

For the compound `CCCC1(C(=O)Nc2nnc(C(F)(F)F)s2)CC1(Cl)Cl` (stereo unspecified), in test [1], the mortality at 200 ppm is 100%. Moreover, the mortality at 12.5 ppm in test [2] came to 0%. The mortality at 50 ppm in test [3] turned out to be 80%. In addition, in test [4], the mortality at 500 ppm turned out to be 100%.

With `CCCCC1(C(=O)Nc2nnc(C(F)(F)F)s2)CC1(Cl)Cl` (stereo unspecified), the mortality at 200 ppm in test [1] turned out to be 30%. Besides, in test [4], the mortality at 500 ppm amounted to 80%.

Take `CCC1(C(=O)Nc2nnc(C(F)(F)F)s2)CC1(Cl)Cl` (stereo unspecified): the mortality at 200 ppm in test [1] was 100%. Besides, in test [2], the mortality at 12.5 ppm amounted to 0%. Also, the mortality at 50 ppm in test [3] came out at 100%. Moreover, the mortality at 500 ppm in test [4] turned out to be 100%.

Regarding `CCc1nnc(NC(=O)C2(C)CC2(Cl)Cl)s1` (stereo unspecified), the mortality at 500 ppm in test [4] was 0%.

On to `CC1(C(=O)Nc2nnc(C(F)(F)F)s2)CC1`, for which, in test [4], the mortality at 500 ppm came to 0%.

Usually mortality stands for the share of the test organisms that died.
